# Measurements from US20050101595A1, “N-containing cycloalkyl-substituted amino-thiazole derivatives and pharmaceutical compositions for inhibiting cell proliferation and methods for their use” (PFIZER INC., priority 2003, published 2005).
# Structures can show the parent of a compound that is named as a salt. Where two headings read alike, the source gives them in different places.
# Columns and labels:
# CDK2/Cyclin A = CDK2/Cyclin A (Homo sapiens, UniProt P24941); assay: Inhibition of CDK2/Cyclin A Retinoblastoma Kinase Activity; assay type: biochemical; settings: for Ki: apparent Ki, CDK2/proteolyzed cyclin A, Rb fragment substrate, 25 μM ATP; for CDK2 % Inhibition At 0.03 μM: Table 2
# Outline: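 Human CDK2, baculovirus/insect-cell expressed, complexed with proteolyzed cyclin A (10 nM or 19 nM CDK2) phosphorylates an Rb fragment with 25 μM [32P/33P]ATP at pH 7.4, 30° C, for 60 or 75 minutes under initial-rate conditions. Filter-captured radioactivity is read by phosphorimager; apparent Ki from competitive-inhibition fits.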
# [1] = biological target: human CDK4 and genetically truncated (1-264) cyclin D3 (Homo sapiens, UniProt P11802); assay: Inhibition of CDK4/Cyclin D Retinoblastoma Kinase Activity; assay type: biochemical; settings: for Ki: apparent Ki, CDK4/truncated cyclin D3, Rb fragment substrate, 25 μM ATP
# Sequence of human CDK4 and genetically truncated (1-264) cyclin D3 (P11802 whole entry, the tested form may be a part): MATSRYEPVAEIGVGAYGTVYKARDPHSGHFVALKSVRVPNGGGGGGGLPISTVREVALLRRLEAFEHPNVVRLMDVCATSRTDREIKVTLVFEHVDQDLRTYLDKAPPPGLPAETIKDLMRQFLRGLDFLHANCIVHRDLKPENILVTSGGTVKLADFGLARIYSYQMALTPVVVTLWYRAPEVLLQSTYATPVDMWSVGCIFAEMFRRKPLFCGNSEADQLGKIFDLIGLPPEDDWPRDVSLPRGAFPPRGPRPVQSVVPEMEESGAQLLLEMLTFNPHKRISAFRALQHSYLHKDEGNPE
# Sequence of human CDK4 and genetically truncated (1-264) cyclin D3 (P30281 1-264 partner): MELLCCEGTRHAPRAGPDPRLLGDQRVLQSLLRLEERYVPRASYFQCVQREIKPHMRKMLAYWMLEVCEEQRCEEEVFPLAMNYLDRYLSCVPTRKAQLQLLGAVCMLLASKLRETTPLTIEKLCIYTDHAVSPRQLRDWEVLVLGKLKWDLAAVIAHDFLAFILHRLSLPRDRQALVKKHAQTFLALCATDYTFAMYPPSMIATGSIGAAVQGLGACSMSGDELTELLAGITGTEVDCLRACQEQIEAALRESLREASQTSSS
# Outline: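 Read-out: 32P/33P incorporation into Rb fragment (386-928) captured on nitrocellulose, phosphorimager. Enzyme 5 nM CDK4/cyclin D3(1-264) from insect cells; ATP 25 μM, pH 7.4, 30 °C, 20 min (60 min for tight binders). Ki from competitive fits.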
# HCT-116 cell line = assay: Inhibition of cell growth, tetrazolium salt (MTT) assay; assay type: cell-based; settings: for HCT-116 % Inhibition at 0.25 μM: 0.25 μM compound; for IC50: Homo sapiens, HCT-116, 120 h, MTT, three to five days, read-out: HCT-116 IC50
# Outline: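 HCT-116 cells in McCoy's 5A medium received compound 4 h after plating (0.5% v/v DMSO) and were incubated three to five days at 37° C, 5% CO2. MTT (0.2 mg/mL final) then added for 4 h; DMSO-solubilized formazan read at 540 nm against 0.5% DMSO-treated controls.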
# [2] = 0.1 μM compound, HCT-116, Table 3
# [3] = 0.1 μM compound, HCT-116, Table 4
CDK2 % Inhibition at 0.03 μM (CDK2/Cyclin A; at 0.03 μM) [%],CDK4 % Inhibition at 0.03 μM ([1]; at 0.03 μM) [%],Ki (CDK2/Cyclin A) [nM],Ki [1] [nM],IC50 (HCT-116 cell line; first HCT-116 column (c4)) [nM],IC50 (HCT-116 cell line; second HCT-116 column (c5)) [nM],Structure (SMILES),"HCT-116 % Inhibition at 0.1 μM (HCT-116 cell line; HCT-116 cells, at 0.1 μM) [%]",HCT-116 5 Inhibition at 0.25 μM (HCT-116 cell line; HCT-116 cells),also measured
20,19,–,–,–,–,Nc1nc(NC2CCN(C(=O)CC3CCCC3)CC2)sc1C(=O)c1c(F)cccc1F [Example R78],0,47,–
–,–,–,–,–,–,Nc1nc(NC2CCN(S(=O)(=O)/C=C/c3ccccc3)CC2)sc1C(=O)c1c(F)cccc1F [Example P26],–,–,"CDK2 % Inhibition at 0.03 μM (CDK2/Cyclin A; 0.03 μM compound, Table 3): 37%; CDK4 % Inhibition at 0.03 μM ([1]; 0.03 μM compound, Table 3): 39%; HCT-116 % Inhibition at 0.1 μM (HCT-116 cell line; [2]): 4%; HCT-116 % Inhibition at 0.25 μM (HCT-116 cell line; HCT-116, Table 3): 23%"
–,–,–,–,–,–,Nc1nc(NC2CCN(C(=O)c3ccccc3)CC2)sc1C(=O)c1c(F)cccc1F [Example Q9],–,–,"CDK2 % Inhibition at 0.03 μM (CDK2/Cyclin A; 0.03 μM compound, Table 4): 13%; CDK4 % Inhibition at 0.03 μM ([1]; 0.03 μM compound, Table 4): 52%; HCT-116 % Inhibition at 0.1 μM (HCT-116 cell line; [3]): 0%; HCT-116 % Inhibition at 0.25 μM (HCT-116 cell line; HCT-116, Table 4): 36%"
–,–,20,83,> 5000,> 5000,"CN(C)CCOc1nc(S(=O)(=O)N2CCC(Nc3nc(N)c(C(=O)c4c(F)cccc4F)s3)CC2)cn1C [Example H25, (4-Amino-2-{1-[2-(2-dimethylamino-ethoxy)-1-methyl-1H-imidazole-4-sulfonyl]-piperidin-4-ylamino}-thiazol-5-yl)-(2,6-difluoro-phenyl)-methanone Hydrochloride Salt]",–,–,–
–,–,0.5,0.8,140,3500,"Nc1nc(NC2CCN(S(=O)(=O)c3ccc(N4CCC[C@H]4CO)nc3)CC2)sc1C(=O)c1c(F)cccc1F [Example G14, 1-{4-Amino-2-{1-[6-(2S-hydroxymethyl-pyrrolidin-1-yl)-pyridine-3-sulfonyl]-piperidin-4-ylamino}-thiazol-5-yl)-1-(2,6-difluoro-phenyl)-methanone Trifluoroacetic Acid Salt]",–,–,–
–,–,100,32,7.2,220,"Cc1cc(C(=O)N2CCC(Nc3nc(N)c(C(=O)c4c(F)cccc4F)s3)CC2)ccc1Cl [Example D7, 1-(4-Amino-2-{1-[1-(4-chloro-3-methyl-phenyl)-methanoyl]-piperidin-4-ylamino}-thiazol-5-yl)-1-(2,6-difluoro-phenyl)-methanone]",–,–,–
–,–,2.8,0.77,80,250,"Nc1nc(NC2CCN(S(=O)(=O)c3ccc(OCCN4CCOCC4)nc3)CC2)sc1C(=O)c1c(F)cccc1F [Example H2, 1-{4-Amino-2-[1-{6-morpholin-(4-yl-ethoxy)-pyridine-3-sulfonyl}-piperidin-4-ylamino]-thiazol-5-yl}-1-(2,6-difluoro-phenyl)-methanone Hydrochloride]",–,–,–
–,–,–,–,–,–,Nc1nc(NC2CCN(C(=O)NC3CCCCC3)CC2)sc1C(=O)c1c(F)cccc1F [Example O34],–,–,"CDK2 % Inhibition At 0.03 μM (CDK2/Cyclin A; 0.03 μM compound): 30%; CDK4 % Inhibition at 0.03 μM ([1]; 0.03 μM compound, Table 2): 6%; HCT-116 % Inhibition at 0.25 μM (HCT-116 cell line; HCT-116, Table 2): 22%"
2,19,–,–,–,–,Nc1nc(NC2CCN(C(=O)c3cccc(Cl)c3Cl)CC2)sc1C(=O)c1c(F)cccc1F [Example R106],2,72,–
–,–,95,66,> 5000,> 5000,"Nc1nc(NC2CCN(C(=O)c3c[nH]cn3)CC2)sc1C(=O)c1c(F)cccc1F [Example C14, 1-{4-Amino-2-[1-(1-1H-imidazol-4-yl-methanoyl)-piperidin-4-ylamino]-thiazol-5-yl}-1-(2,6-difluoro-phenyl)-methanone]",–,–,–
11,25,–,–,–,–,CC(=O)Nc1ccccc1C(=O)N1CCC(Nc2nc(N)c(C(=O)c3c(F)cccc3F)s2)CC1 [Example R111],4,52,–
11,37,–,–,–,–,Nc1nc(NC2CCN(C(=O)c3cc(C(F)(F)F)ccc3C(F)(F)F)CC2)sc1C(=O)c1c(F)cccc1F [Example R55],5,51,–
–,–,490,130,1700,3100,"Nc1nc(NC2CCN(Cc3ccccc3)CC2)sc1C(=O)c1c(F)cccc1F [Example A3, 1-[4-Amino-2-(1-benzyl-piperidin-4-ylamino)-thiazol-5-yl]-1-(2,6-difluoro-phenyl)-methanone]",–,–,–
44,48,–,–,–,–,CC(=O)Oc1ccccc1C(=O)N1CCC(Nc2nc(N)c(C(=O)c3c(F)cccc3F)s2)CC1 [Example R113],0,40,–
–,–,–,–,–,–,Nc1nc(NC2CCN(C(=O)c3ccc4ccccc4c3)CC2)sc1C(=O)c1c(F)cccc1F [Example Q63],–,–,"CDK2 % Inhibition at 0.03 μM (CDK2/Cyclin A; 0.03 μM compound, Table 4): 39%; CDK4 % Inhibition at 0.03 μM ([1]; 0.03 μM compound, Table 4): 57%; HCT-116 % Inhibition at 0.1 μM (HCT-116 cell line; [3]): 5%; HCT-116 % Inhibition at 0.25 μM (HCT-116 cell line; HCT-116, Table 4): 25%"
–,–,–,–,–,–,Cc1ccccc1NC(=O)N1CCC(Nc2nc(N)c(C(=O)c3c(F)cccc3F)s2)CC1 [Example O11],–,–,"CDK2 % Inhibition At 0.03 μM (CDK2/Cyclin A; 0.03 μM compound): 35%; CDK4 % Inhibition at 0.03 μM ([1]; 0.03 μM compound, Table 2): 6%; HCT-116 % Inhibition at 0.25 μM (HCT-116 cell line; HCT-116, Table 2): 0%"
–,–,0.3,0.31,410,1300,"Nc1nc(NC2CCN(S(=O)(=O)c3ccc(CCNc4cccc(O)c4)nc3)CC2)sc1C(=O)c1c(F)cccc1F [Example N6, [4-Amino-2-(1-{6-[2-(3-hydroxy-phenylamino)-ethyl]-pyridine-3-sulfonyl}-piperidin-4-ylamino)-thiazol-5-yl]-(2,6-difluoro-phenyl)-methanone Hydrochloride Salt.]",–,–,–
–,–,1.7,0.39,160,2900,"C[C@@H]1CN(Cc2ccc(S(=O)(=O)N3CCC(Nc4nc(N)c(C(=O)c5c(F)cccc5F)s4)CC3)cc2)C[C@H](C)N1 [Example J10, 1-{4-Amino-2-{1-[4-(3,5-dimethyl-piperazin-1-ylmethyl)-benzenesulfonyl]-piperidin-4-ylamino}-thiazol-5-yl)-1-(2,6-difluoro-phenyl)-methanone Hydrochloride Salt.]",–,–,–
−10,29,–,–,–,–,Nc1nc(NC2CCN(C(=O)N3CCCC3)CC2)sc1C(=O)c1c(F)cccc1F [Example R81],13,43,–
–,–,6.3,4.7,2300,> 5000,Nc1nc(NC2CCN(S(=O)(=O)CCCn3ccnc3)CC2)sc1C(=O)c1c(F)cccc1F [Example K2],–,–,–
–,–,–,–,–,–,Cc1cccc(NC(=O)N2CCC(Nc3nc(N)c(C(=O)c4c(F)cccc4F)s3)CC2)c1 [Example O17],–,–,"CDK2 % Inhibition At 0.03 μM (CDK2/Cyclin A; 0.03 μM compound): 32%; CDK4 % Inhibition at 0.03 μM ([1]; 0.03 μM compound, Table 2): 6%; HCT-116 % Inhibition at 0.25 μM (HCT-116 cell line; HCT-116, Table 2): 8%"
–,–,–,–,–,–,Nc1nc(NC2CCN(S(=O)(=O)c3ccc(F)cc3)CC2)sc1C(=O)c1c(F)cccc1F [Example P13],–,–,"CDK2 % Inhibition at 0.03 μM (CDK2/Cyclin A; 0.03 μM compound, Table 3): 75%; CDK4 % Inhibition at 0.03 μM ([1]; 0.03 μM compound, Table 3): 77%; HCT-116 % Inhibition at 0.1 μM (HCT-116 cell line; [2]): 19%; HCT-116 % Inhibition at 0.25 μM (HCT-116 cell line; HCT-116, Table 3): 31%"
–,–,–,–,–,–,CCCCOc1ccc(C(C)(C)CC)cc1S(=O)(=O)N1CCC(Nc2nc(N)c(C(=O)c3c(F)cccc3F)s2)CC1 [Example P74],–,–,"CDK2 % Inhibition at 0.03 μM (CDK2/Cyclin A; 0.03 μM compound, Table 3): −30%; CDK4 % Inhibition at 0.03 μM ([1]; 0.03 μM compound, Table 3): 4%; HCT-116 % Inhibition at 0.1 μM (HCT-116 cell line; [2]): 19%; HCT-116 % Inhibition at 0.25 μM (HCT-116 cell line; HCT-116, Table 3): 27%"
–,–,–,–,–,–,COc1ccc(NC(=O)N2CCC(Nc3nc(N)c(C(=O)c4c(F)cccc4F)s3)CC2)cc1 [Example O84],–,–,"CDK2 % Inhibition At 0.03 μM (CDK2/Cyclin A; 0.03 μM compound, 0.03 µM): 23%; CDK4 % Inhibition at 0.03 μM ([1]; 0.03 μM compound, Table 2, 0.03 µM): 14%; HCT-116 % Inhibition at 0.25 μM (HCT-116 cell line; HCT-116, Table 2, 0.25 µM): 42%"
9,24,–,–,–,–,Cc1ccc(S(=O)(=O)CC(=O)N2CCC(Nc3nc(N)c(C(=O)c4c(F)cccc4F)s3)CC2)cc1 [Example R65],3,31,–
34,49,–,–,–,–,CCC(=O)N1CCC(Nc2nc(N)c(C(=O)c3c(F)cccc3F)s2)CC1 [Example R172],0,49,–
21,34,–,–,–,–,Nc1nc(NC2CCN(C(=O)c3c(F)cccc3Cl)CC2)sc1C(=O)c1c(F)cccc1F [Example R109],14,47,–
58,80,–,–,–,–,COC(=O)c1ccc(C(=O)N2CCC(Nc3nc(N)c(C(=O)c4c(F)cccc4F)s3)CC2)cc1 [Example R33],1,49,–
